Assay results taken from patent US11478470B2, “Combination product of Bcl-2 inhibitor or Bcl-2/Bcl-xL dual inhibitor and BTK inhibitor and use thereof in the prevention and/or treatment of diseases” (ASCENTAGE PHARMA (SUZHOU) CO., LTD., priority 2018, dated 2022).
pIC50: −log10 of the molar value. Like-named read-outs stand apart in the source and are kept apart here.

Tests used:
[1] = test system: human OCI-LY1 (DLBCL) xenograft tumor; assay type: in vivo; details: for RTV on the 43rd day after administration (mean ± standard error) / T/C (%) on day 43 after administration: Cpd. 6 100 mg/kg p.o. qd, Ibrutinib 15 mg/kg i.v. qd, day 43; for TGI (%) on day 43 after administration: TGI = 100 − T/C%
Method: (§1) All animal experiments were strictly in accordance with the laboratory animal use and management practices of GenePharma Co., Ltd. and Ascentage Pharma Group Co., Ltd. The calculation of relevant parameters referred to the Chinese CFDA “Guidelines for Non-Clinical Research Techniques of Cytotoxic Antitumor Drugs”.
(§2) Animal body weight and tumor size were measured twice a week during the experiment. Tumor growth was observed periodically, and the animals were randomly divided into groups according to tumor size and mouse body weight when the tumors grew to an average volume of 100-200 mm^3. The conditions and death of the animals were observed every day. Routine monitoring included the effects of tumor growth and treatment on normal animal behaviors, including activity, feeding and drinking situations, weight gain or loss, eyes, coat and other abnormalities in the experimental animals. The deaths and clinical symptoms observed during the experiment were recorded in the raw data. The entire operations of administration, measurement of mouse body weight and tumor volume were performed in a clean bench. Plasma and tumor tissues were collected, weighed and photographed after the end of the last administration according to the experimental protocol. Plasma and tumor samples were frozen and stored at −80° C.
(§3) Tumor volume (TV) was calculated as: TV=a×b^2/2, in which a and b represented the length and width of the tumor as measured, respectively. The relative tumor volume (RTV) was calculated as: RTV=Vt/V1, in which V1 was the tumor volume at the time of grouping and administration, and Vt was the tumor volume measured on a day after administration. […] Change of body weight %=(measured body weight−body weight at the time of grouping)/body weight at the time of grouping×100%.
(§4) If the synergy factor was >1, there was a synergistic effect; if the synergistic factor=1, there was an additive effect; if the synergistic factor <1, there was an antagonistic effect.
In short, when the average tumor volume reached approximately 90 mm^3, grouping and administration started. Ibrutinib was administered at a dose of 15 mg/kg, i.v., qd, from the day of grouping, for 3 weeks. […] On the 13th day after grouping, the administration was stopped and the observation period started.

[2] = test system: human DOHH2 (FL) xenograft tumor; assay type: in vivo; details: Cpd. 6 100 mg/kg, Ibrutinib 25 mg/kg; for TGI (%) on day 32 after administration: TGI = 100 − T/C%
Method: as §1, §2, §3, §4

[3] = test system: human DOHH2 (FL) xenograft tumor; assay type: in vivo; details: Cpd. 6 50 mg/kg, Ibrutinib 20 mg/kg
Method: (§5) . All animal experiments were strictly in accordance with the laboratory animal use and management practices of GenePharma Co., Ltd. and Ascentage Pharma Group Co., Ltd. The calculation of relevant parameters referred to the Chinese CFDA “Guidelines for Non-Clinical Research Techniques of Cytotoxic Antitumor Drugs”.
as §2
(§6) Tumor volume (TV) was calculated as: TV=a×b^2/2, in which a and b represented the length and width of the tumor as measured, respectively. The relative tumor volume (RTV) was calculated as: RTV=Vt/V1, in which V1 was the tumor volume at the time of grouping and administration, and Vt was the tumor volume measured on a day after administration. The evaluation index of anti-tumor activity was the relative tumor proliferation rate T/C (%), which was calculated as: relative tumor proliferation rate T/C (%)=(TRTV/CRTV)×100%, in which TRTV was the RTV of the treatment group, CRTV was the RTV of the vehicle control group; tumor remission rate (%) was calculated as: (the number of SD (stable disease), PR (tumor partial regression) and CR (tumor complete regression) in the tumor-bearing mice after treatment)/the total number of mice in the group×100%. Change of body weight %=(measured body weight−body weight at the time of grouping)/body weight at the time of grouping×100%.
(§7) ; The synergistic analysis was performed by the following formula: synergy factor=((A/C)×(B/C))/(AB/C); A=RTV value of the group administered with A only; B=RTV value of the group administered with B only; C=RTV value of the vehicle control group; AB=RTV value of the group administered with A and B in combination (Clarke R. Issues in experimental design and endpoint analysis in the study of experimental cytotoxic agents in vivo in breast cancer and other models [J]. Breast Cancer Research & Treatment, 1997, 46(2-3): 255-278). If the synergy factor was >1, there was a synergistic effect; if the synergistic factor=1, there was an additive effect; if the synergistic factor <1, there was an antagonistic effect.

[4] = test system: human OCI-LY1 (DLBCL) xenograft tumor; assay type: in vivo; details: Cpd. 6 50 mg/kg, Ibrutinib 20 mg/kg; for T/C on day 36 after administration: given as fraction
Method: as §5, §2, §6, §7

DOHH-2 cells = assay: Flow cytometry analysis of apoptosis (Annexin V/PI), DOHH-2; assay type: cell-based, human; details: DOHH-2, 24 hours; 10 nM Compound 6, 100 nM ibrutinib, or the combination
Method: (§8) Apoptosis was evaluated with AnnexinV/propidium iodide (PI) dyes (BD Biosciences, Cat. 556547) according to manufacturer's instructions. Briefly, cells were seeded in 24-well plates at a density 2×10^5 cells/well, and treated with Compound 6 and/or ibrutinib (Selleck) to induce apoptosis. After 24 h, cells were collected, washed twice with PBS (pH 7.4), and stained with Annexin-V and propidium iodide (PI) for 15 mins. Stained samples were analyzed using flow cytometer Attune NxT (Life technologies).
(§9) In the experiment, the combination treatment with Compound 6 and ibrutinib was evaluated for its ability of apoptosis induction on DOHH2 and OCI-LY1 cells by co-staining of Annexin-V/Propidium iodide (PI) followed by flow cytometry analysis (FIG. 7A). […] Flow cytometry analysis of apoptotic cells by Annexin V and propidium iodide (PI) co-staining in DOHH-2 and OCI-LY1 cell lines treated with 10 nM (DOHH-2) or 15 nM (OCI-LY1) Compound 6, 100 nM (DOHH-2) or 150 nM (OCI-LY1) ibrutinib, or the combination for 24 hours. Three independent experiments were conducted and the representative results are shown (7A). The percentages of Annexin V-positive, PI-positive, or double positive DOHH-2 (7B) and OCI-LY1 (7C) cells are plotted as bar charts and shown as mean±SEM (n=3) (**p<0.01, ***p<0.001).

OCI-LY1 cells = assay: Flow cytometry analysis of apoptosis (Annexin V/PI), OCI-LY1; assay type: cell-based, human; details: OCI-LY1, 24 hours; 15 nM Compound 6, 150 nM ibrutinib, or the combination
Method: as §8, §9

DOHH2 cells = assay: CellTiter-Glo cell viability assay, DOHH2 cells (Example 11); assay type: cell-based; details: Homo sapiens, DOHH-2, DOHH2 parental cells
Method: (§10) DOHH2 cells were cultured in RPM11640 medium containing 10% calf serum, 1% antibiotics and 5 ug/ml verapamil (calcium ion channel blocker), and ibrutinib was added at a gradually increasing concentration from 0.5 uM to 10 uM. After exposure for about three months, a ibrutinib-resistant DOHH2R cell line was obtained, also referred to as DOHH2^R-ibrutinib. After DOHH2^R-ibrutinib was stabilized, it was continued to be cultured in culture medium containing 10 uM Ibrutinib to maintain its resistance. Ibrutinib is absent only in the susceptibility test with Compound 6 or 88.
(§11) Relative light units (RLU) were determined by a microplate reader (BioTek, Synergy H1 MF, USA). […] IC50 values were calculated using GraphPad Prism. IC50 was expressed as mean±standard deviation (SD).

DOHH2^R-ibrutinib cells = assay: CellTiter-Glo cell viability assay, ibrutinib-resistant DOHH2R-ibrutinib cells; assay type: cell-based, human; details: for pIC50: Homo sapiens, ibrutinib-resistant cells, CellTiter-Glo, 24 or 72 hours, read-out: IC50 value to the DOHH2^R-ibrutinib cell line (cell viability)
Method: as §10, §11

[5] = test system: various hematological malignancies cell lines including those from DLBCL and FL; assay: Anti-proliferative activity as single agent in hematological malignancies cell lines (data not shown); assay type: cell-based
[6] = Cpd. 6 100 mg/kg, Ibrutinib 15 mg/kg
[7] = Cpd. 6 100 mg/kg, Ibrutinib 15 mg/kg, including CR, PR and SD
[8] = Cpd. 6 100 mg/kg, Ibrutinib 15 mg/kg, mice per group
[9] = Cpd. 6 100 mg/kg, Ibrutinib 15 mg/kg, mice per group, listed as Cpd. 6

Compound: C=CC(=O)N1CCC[C@@H](n2nc(-c3ccc(Oc4ccccc4)cc3)c3c(N)ncnc32)C1 [Ibrutinib, reference compound]
- RTV on the 43rd day after administration (mean ± standard error) [1]: 15.9 ± 7.63
- T/C (%) on day 43 after administration [1]: 58%
- TGI (%) on day 43 after administration [1, 6]: 42%
- RTV on day 50 after administration (mean ± standard error) [1, 6]: 32.1 ± 1137
- remission rate % on day 43 after administration [1, 7]: PR ( 0% )
- remission rate % on day 50 after administration [1, 7]: ( 0% )
- Tumor status on day 43 after administration: CR (tumor complete regression) [1, 8]: 0/5 CR, 0/5
- Tumor status on day 43 after administration: PR (tumor partial regression) [1, 8]: 0/5 CR, 0/5
- Tumor status on day 50 after administration: CR [1, 8]: 0/5 CR,
- Tumor status on day 50 after administration: PR [1, 8]: 0/5 PR
- TGI (%) on day 32 after administration [2]: 52%
- RTV on day 32 after administration (mean ± standard error) [2]: 6.1 ± 0.8
- T/C (%) on day 32 after administration [2]: 48%
- RTV on day 35 after administration (mean ± standard error) [3]: 11.4 ± 1.5
- T/C (%) on day 35 after administration [3]: 67.7%
- RTV on day 36 after administration (mean ± standard error) [4]: 20.5 ± 2.1
- T/C on day 36 after administration [4]: 0.810
- apoptosis induction (Annexin V / PI positive cells) (DOHH-2 cells): limited apoptosis activity
- apoptosis induction (Annexin V / PI positive cells) (OCI-LY1 cells): limited apoptosis activity
- pIC50 (DOHH2 cells): 7.13
- increase of IC50 in DOHH2^R-ibrutinib versus DOHH2 cells (DOHH2^R-ibrutinib cells): 160 fold
- pIC50 (DOHH2^R-ibrutinib cells): 4.91

Compound: CC1(C)CCC(CN2CCN(c3ccc(C(=O)NS(=O)(=O)c4ccc(NCC5CCOCC5)c([N+](=O)[O-])c4)c(Oc4cnc5[nH]ccc5c4)c3)CC2)=C(c2ccc(Cl)cc2)C1 [ABT-199, reference compound]
- pIC50 (DOHH2 cells): 7.29
- pIC50 (DOHH2^R-ibrutinib cells): 5.92

Compound: Cc1c(S(C)(=O)=O)c(-c2cc(F)cc(N3CCN(c4ccc(NS(=O)(=O)c5ccc(N[C@H](CCN6CCC(C(=O)O)CC6)CSc6ccccc6)c(S(=O)(=O)C(F)(F)F)c5)cc4)CC3)c2)c(-c2ccc(Cl)cc2)n1C(C)C [Compound 88, (R)-1-(3-(4-(N-(4-(4-(3-(2-(4-chlorophenyl)-1-isopropyl-5-methyl-4-(methylsulfonyl)-1H-pyrrol-3-yl)-5-fluorophenyl)piperazin-1-yl)phenyl)-sulfamoyl)-2-(trifluoromethylsulfonyl)phenylamino)-4-(phenylthio)butyl)piperidine-4-carboxylic acid]
- time to cell death (DOHH2^R-ibrutinib cells; DOHH2^R-ibrutinib cells): ≤ 24 h
- pIC50 (DOHH2^R-ibrutinib cells): 7.77

Compound: O=C(NS(=O)(=O)c1ccc(NC[C@H]2COCCO2)c([N+](=O)[O-])c1)c1ccc(N2CCN(CC3=C(c4ccc(Cl)cc4)CC4(CCC4)CC3)CC2)cc1Oc1cnc2[nH]ccc2c1 [Compound 6, (S)-N-((4-(((1,4-dioxan-2-yl)methyl)amino)-3-nitrophenyl)sulfonyl)-2-((1H-pyrrolo[2,3-b]pyridin-5-yl)oxy)-4-(4-((6-(4-chlorophenyl)spiro[3.5]non-6-en-7-yl)methyl)piperazin-1-yl)benzamide]
- RTV on the 43rd day after administration (mean ± standard error) [1]: 1.03 ± 0.33
- T/C (%) on day 43 after administration [1]: 4%
- TGI (%) on day 43 after administration [1, 6]: 96%
- RTV on day 50 after administration (mean ± standard error) [1, 6]: 2.64 ± 0.55
- remission rate % on day 43 after administration [1, 7]: 20%
- remission rate % on day 50 after administration [1, 7]: ( 10% )
- remission rate % on day 68 after administration [1, 7]: PR ( 0% )
- remission rate % on day 43 after administration ([1]; Cpd. 6 100 mg/kg, Ibrutinib 15 mg/kg, including CR, PR and SD, listed as Cpd. 6): ( 100% )
- Tumor status on day 43 after administration: CR (tumor complete regression) [1, 8]: 1/5
- Tumor status on day 43 after administration: PR (tumor partial regression) [1, 8]: 1/5
- Tumor status on day 50 after administration: CR [1, 8]: 0/5 CR,
- Tumor status on day 50 after administration: PR [1, 8]: 1/5 PR
- Tumor status on day 68 after administration: CR [1, 8]: 0/5 CR, 0/5
- Tumor status on day 68 after administration: PR [1, 8]: 0/5 CR, 0/5
- Tumor status on day 43 after administration: CR (tumor complete regression) [1, 9]: 1/5 CR, 1/5
- Tumor status on day 43 after administration: PR (tumor partial regression) [1, 9]: 1/5 CR, 1/5
- TGI (%) on day 32 after administration [2]: 81%
- RTV on day 32 after administration (mean ± standard error) [2]: 2.4 ± 0.2
- T/C (%) on day 32 after administration [2]: 19%
- RTV on day 35 after administration (mean ± standard error) [3]: 7.5 ± 0.7
- T/C (%) on day 35 after administration [3]: 44.40%
- RTV on day 36 after administration (mean ± standard error) [4]: 2.2 ± 0.4
- T/C on day 36 after administration [4]: 0.090
- RTV on day 43 after administration ([4]; day 43): 7.1 ± 0.4
- apoptosis induction (Annexin V / PI positive cells) (DOHH-2 cells): slightly enhanced apoptotic activity
- apoptosis induction (Annexin V / PI positive cells) (OCI-LY1 cells): slightly enhanced apoptotic activity
- pIC50 (DOHH2 cells): 7.32
- pIC50 (DOHH2^R-ibrutinib cells): 6.19
- anti-proliferative activities as a single agent compared with ABT-199 [5]: comparable if not better than ABT-199
